Experimental data reported in publication PMC9252919, “Controlled masking and targeted release of redox-cycling ortho-quinones via a C–C bond-cleaving 1,6-elimination” (Nature Chemistry, 2022).

B1: Gem-IgG1: native IgG1 antibody containing the variable region of gemtuzumab (antibody, chains of the INN, looked up, V domains shown)
VH: EVQLVQSGAEVKKPGSSVKVSCKASGYTITDSNIHWVRQAPGQSLEWIGYIYPYNGGTDYNQKFKNRATLTVDNPTNTAYMELSSLRSEDTAFYYCVNGNPWLAYWGQGTLVTVSS
VL: DIQLTQSPSTLSASVGDRVTITCRASESLDNYGIRFLTWFQQKPGKAPKLLMYAASNQGSGVPSRFSGSGSGTEFTLTISSLQPDDFATYYCQQTKEVPWSFGQGTKVEVK
modifications: IgG1
notes: native IgG1 antibody containing the variable region of gemtuzumab

Legend:
[1] = system: AML cell line MOLM-13; test: Viability assay with small-molecule prodrugs, MOLM-13; assay type: cell-based; settings: MOLM-13
Method: (§1) For assays assessing cytotoxicity of β-lapachone versus small-molecule prodrugs, antibodies and ADCs, suspension cells were plated into 24-well plates at a density of 2.5 × 10^5 cells ml^−1 in 240 µl. Stocks of ADC or antibody in PBS were normalized to 12.5 µM. Serial dilutions of compound were made up in PBS. Then, 60 µl of each stock of either PBS or compound in PBS was added to the cells to achieve the desired final concentration. After the specified incubation time, toxicity was assessed by counting of live cells using the trypan blue exclusion method with a Countess II Automated Cell Counter (ThermoFisher Scientific) according to the manufacturer’s instructions. Cell viability was determined by dividing the average live cell number of treated wells by the average live cell number for control wells treated with PBS only. IC50 values were calculated using GraphPad Prism software. Note: for the assay performed over 96 h, 5% human serum was added to media instead of 10% fetal bovine serum, to limit non-specific antibody internalisation. This had little effect on ADC toxicity.

[2] = system: CD33+ HL-60 cells; test: Viability assay with small-molecule prodrugs and ADCs, HL-60; assay type: cell-based, human
Method: as §1

[3] = system: HL-60 cells; test: Lysosomal deacidification and inhibition assay; assay type: cell-based, human; settings: HL-60
Method: Assays to assess the effect of lysosomal activity on prodrugs were performed as follows: HL-60 cells were plated into 96-well plates at a concentration of 2.5 × 10^5 cells ml^−1 in 180 µl media. Cells were treated with 10 µl of a stock of NH4Cl in PBS (to obtain an in-plate concentration of 3 or 30 mM), 10 µl of a dilution of a DMSO stock of E64d in PBS (to obtain an in-plate concentration of 30 μM), PBS only or a dilution of DMSO in PBS. Cells were incubated for 30 min. Following this, 10 µl of a stock of test compound made by dilution of a DMSO stock into media was added. DMSO was present in-plate at a maximum of 0.2%. Cells were incubated overnight for 16 h. Following incubation, media was replaced with media containing CellTiter-Blue (Promega) in 1:4 dilution and the plates were incubated for 6 h. The fluorescence of the plates was recorded (excitation, 555 nm; emission, 585 nm; MiniMax i3x Reader, Molecular Devices). Cell viability was calculated by division of the fluorescence intensity of treated wells by that of the average fluorescence intensity of the relevant negative control wells.

[4] = system: HEL cells; test: Viability assay with ADCs, HEL, trypan blue exclusion; assay type: cell-based, human; settings: 96 h
Method: as §1

Molecule | IC50 relative to 1 in MOLM-13 [1] | IC50 relative to 1 in HL-60 [2] | toxicity after lysosomal deacidification (NH4Cl) or inhibition (E64d) [3] | toxicity to HEL at 2.5 µM ([4]; 2.5 µM) | in vitro toxicity against HEL ([4]; live cell count)
CC(C)C(NC(=O)OCc1ccccc1)C(=O)NC(CCCNC(N)=O)C(=O)Nc1ccc(CC2(O)C(=O)C3=C(OC(C)(C)CC3)c3ccccc32)cc1 (centres unmarked) [Compound 26] | 10 fold | 10 fold | less toxic | – | –
B1 | – | – | – | no toxicity | no apparent toxicity
